Reference: patent publication US10532054B2, “Compounds for the prevention and treatment of cardiovascular diseases” (Resverlogix Corp., priority 2007, dated 2020)
Structures can show the parent of a compound that is named as a salt.

Structure (SMILES)	melting point [°C]
COc1cc(OC)c2c(=O)n(C)c(-c3cc(C)c(O)c(C)c3)cc2c1 [Example 7, 3-(4-hydroxy-3,5-dimethylphenyl)-6,8-dimethoxy-2-methylisoquinolin-1(2H)-one]	253 to 254
COc1cc(OC)c2c(=O)[nH]c(-c3cc(C)c(OCCN4CCN(C)CC4)c(C)c3)cc2c1 (as salt: hydrochloride) [Example 23]	195 to 198
O=C(O)COc1ccc(-c2nc3ccccc3c(=O)[nH]2)cc1 [Example 39, 2-(4-(4-oxo-3,4-dihydroquinazolin-2-yl)phenoxy)acetic acid]	285 to 287
CN(C)c1ccc(-c2nc3ccccc3c(=O)[nH]2)c2ccccc12 [Example 40, 2-(4-(dimethylamino)naphthalen-1-yl)quinazolin-4(3H)-one]	224 to 226
COc1cc(OC)c2c(=O)[nH]c(-c3ccc(OCC(N)=O)cc3)nc2c1 [Example 38, 2-(4-(5,7-dimethoxy-4-oxo-3,4-dihydroquinazolin-2-yl)phenoxy)acetamide]	309 to 311
COc1cc(OC)c2c(=O)[nH]c(-c3ccc4c(c3)OCCO4)nc2c1 [Example 42, 2-(2,3-dihydrobenzo[b][1,4]dioxin-6-yl)-5,7-dimethoxyquinazolin-4(3H)-one]	307.5 to 309.6
COc1cc(OC)c2c(=O)[nH]c(-c3ccccn3)nc2c1 (as salt: hydrochloride) [Example 26, 5,7-dimethoxy-2-(pyridin-2-yl)quinazolin-4(3H)-one]	215 to 217
O=c1[nH]c(-c2ccc(O)cc2)cc2ccccc12 [Example 1, 3-(4-Hydroxyphenyl)-2H-isoquinolin-1-one]	239 to 241
COc1cc(OC)c2c(=O)[nH]c(-c3cc(C)c(OCCO)c(C)c3)cc2n1 [Example 61, 7-(4-(2-hydroxyethoxy)-3,5-dimethylphenyl)-2,4-dimethoxy-1,6-naphthyridin-5(6H)-one]	224.9 to 225.4
COc1cc(OC)c2c(=O)[nH]c(-c3cc(C)c(OCCN4CCOCC4)c(C)c3)nc2c1 (as salt: hydrochloride) [Example 21, 2-(3,5-dimethyl-4-(2-morpholinoethoxy)phenyl)-5,7-dimethoxyquinazolin-4(3H)-one]	185 to 187
Cc1cc(-c2nc3ccccc3c(=O)[nH]2)cc(C)c1OCCN1CCOCC1 (as salt: hydrochloride) [Example 34, 2-(3,5-dimethyl-4-(2-morpholinoethoxy)phenyl)quinazolin-4(3H)-one]	300 to 302

Further lines, results first:

melting point [°C]	Structure (SMILES)
249 to 250.3	COc1cc(OC)c2c(=O)[nH]c(-c3ccc(O)c(CCO)c3)nc2c1 [Example 75, 2-(4-hydroxy-3-(2-hydroxyethyl)phenyl)-5,7-dimethoxyquinazolin-4(3H)-one]
318 to 319	COc1cc(OC)c2c(=O)[nH]c(-c3ccc(NC(=O)CO)cc3)nc2c1 [Example 65, N-(4-(5,7-dimethoxy-4-oxo-3,4-dihydroquinazolin-2-yl)phenyl)-2-hydroxyacetamide]
291.3 to 293	COc1cc(O)c2c(=O)[nH]c(-c3cc(C)c(O)c(C)c3)nc2c1 [Example 104, 5-hydroxy-2-(4-hydroxy-3,5-dimethylphenyl)-7-methoxyquinazolin-4(3H)-one]
237 to 239.1	COc1cc2nc(-c3cc(C)c(O)c(C)c3)[nH]c(=O)c2c(OC)c1CN1CCOCC1 [Example 81, 2-(4-hydroxy-3,5-dimethylphenyl)-5,7-dimethoxy-6-(morpholinomethyl)quinazolin-4(3H)-one]
277 to 279	COc1cc(OC)c2c(=O)[nH]c(-c3ccc(N(CCO)CCO)cc3)nc2n1 [Example 78, 2-(4-(bis(2-hydroxyethyl)amino)phenyl)-5,7-dimethoxy-pyrido[2,3-d]pyrimidin-4(3H)one]
259.6 to 261.2	Cc1cc(C)c2c(=O)[nH]c(-c3cc(C)c(OCCO)c(C)c3)nc2c1 [Example 77, 2-(4-(2-hydroxyethoxy)-3,5-dimethylphenyl)-5,7-dimethylquinazolin-4(3H)-one]
